In patent US20250230165A1, “HETEROCYCLIC COMPOUNDS FOR USE IN THE TREATMENT OF CANCER” (ARTIOS PHARMA LIMITED, priority 2021, published 2025):

These compounds were tested against T1, Human Polθ polymerase domain (aa1820-2590) (Homo sapiens, UniProt O75417) (assay: Polθ Polymerase Domain Kinact/KI Assay (PicoGreen)). Conditions: 0.8 nM Polθ, 100 nM DNA substrate, kobs vs [I] fit for 2-step covalent inhibitor.
T1 construct: Human Polθ polymerase domain (aa1820-2590) was expressed in E. coli; made in house; host or cells: E. coli
T1 sequence (O75417 1820-2590): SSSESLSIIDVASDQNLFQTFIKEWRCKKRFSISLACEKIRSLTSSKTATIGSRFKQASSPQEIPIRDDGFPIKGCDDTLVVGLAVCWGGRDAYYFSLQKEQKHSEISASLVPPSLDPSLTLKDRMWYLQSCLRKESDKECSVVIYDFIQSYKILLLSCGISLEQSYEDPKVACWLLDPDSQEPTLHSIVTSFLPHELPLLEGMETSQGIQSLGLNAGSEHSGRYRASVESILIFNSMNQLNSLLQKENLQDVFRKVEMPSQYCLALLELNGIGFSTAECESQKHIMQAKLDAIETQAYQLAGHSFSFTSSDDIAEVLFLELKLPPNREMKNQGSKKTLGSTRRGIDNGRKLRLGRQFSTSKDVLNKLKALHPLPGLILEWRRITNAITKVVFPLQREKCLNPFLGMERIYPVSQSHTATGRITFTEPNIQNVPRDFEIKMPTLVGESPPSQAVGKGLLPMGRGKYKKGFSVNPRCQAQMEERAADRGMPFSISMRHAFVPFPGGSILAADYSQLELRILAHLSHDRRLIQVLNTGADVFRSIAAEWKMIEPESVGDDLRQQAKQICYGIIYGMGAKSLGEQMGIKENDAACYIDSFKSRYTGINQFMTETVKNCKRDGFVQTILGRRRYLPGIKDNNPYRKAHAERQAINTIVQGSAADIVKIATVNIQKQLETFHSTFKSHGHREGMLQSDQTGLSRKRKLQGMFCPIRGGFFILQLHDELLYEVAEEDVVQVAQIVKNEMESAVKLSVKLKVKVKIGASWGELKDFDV
Format: biochemical
In short: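 Enzyme 0.8 nM, annealed DNA substrate 100 nM, […]; 25 mM Tris pH 7.5, 5% glycerol, 0.01% Triton X-100, 0.1 mg/ml BSA, 1 mM DTT, 1% DMSO. Quench with EDTA at timepoints to 60 min; PicoGreen read. kobs from time courses → Kinact/KI.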

Going from `C=C(CN(C)C)C(=O)N1CC(OCCCN2C[C@H]3CC(=O)N(c4cc(C(F)(F)F)cc(C)n4)[C@@H]3C(=O)N(C)c3ccccc32)C1` [Example 81, (3aR,11aS)-5-(3-((1-(2-((dimethylamino)methyl)acryloyl)azetidin-3-yl)oxy)propyl)-10-methyl-1-(6-methyl-4-(trifluoromethyl)pyridin-2-yl)-1,3a,4,5,10,11a-hexahydro-2H-benzo[b]pyrrolo[2,3-f][1,4]diazocine-2,11(3H)-dione] to `C=C(CN(C)C)C(=O)NCCCCCN1C[C@H]2CC(=O)N(c3cc(C(F)(F)F)cc(C)n3)[C@@H]2C(=O)N(C)c2cccc(C)c21` [Example 84, N-(5-((3aR,11aS)-6,10-dimethyl-1-(6-methyl-4-(trifluoromethyl)pyridin-2-yl)-2,11-dioxo-1,2,3,3a,4,10,11,11a-octahydro-5H-benzo[b]pyrrolo[2,3-f][1,4]diazocin-5-yl)pentyl)-2-((dimethylamino)methyl)acrylamide], the Kinact/Kl rises from 2.03e+06 M⁻¹ s⁻¹ to 3.61e+06 M⁻¹ s⁻¹ (1.8-fold).

First: Cc1cc(C(F)(F)F)cc(N2C(=O)C[C@@H]3CN(CCCOC4CN(C(=O)C5=CCCNC5)C4)c4c(C)cccc4N(C)C(=O)[C@H]32)n1 [Example 82, (3aR,11aS)-6,10-dimethyl-1-(6-methyl-4-(trifluoromethyl)pyridin-2-yl)-5-(3-((1-(1,2,5,6-tetrahydropyridine-3-carbonyl)azetidin-3-yl)oxy)propyl)-1,3a,4,5,10,11a-hexahydro-2H-benzo[b]pyrrolo[2,3-f][1,4]diazocine-2,11(3H)-dione]
Second: Cc1cc(C(F)(F)F)cc(N2C(=O)C[C@@H]3CN(Cc4ccc(NC(=O)C5=CCCNC5)cc4)c4c(C)cccc4N(C)C(=O)[C@H]32)n1 [Example 88, N-(4-(((3aR,11aS)-6,10-dimethyl-1-(6-methyl-4-(trifluoromethyl)pyridin-2-yl)-2,11-dioxo-1,2,3,3a,4,10,11,11a-octahydro-5H-benzo[b]pyrrolo[2,3-f][1,4]diazocin-5-yl)methyl)phenyl)-1,2,5,6-tetrahydropyridine-3-carboxamide]
The Kinact/Kl of the first is 5.2-fold lower: 920000 M⁻¹ s⁻¹ for the first, 4.75e+06 M⁻¹ s⁻¹ for the second.

First: Cc1cc(C(F)(F)F)cc(N2C(=O)C[C@@H]3CN(CCCCCNC(=O)/C=C/CN(C)C)c4c(C)cccc4N(C)C(=O)[C@H]32)n1 [Example 83, (E)-N-(5-((3aR,11aS)-6,10-dimethyl-1-(6-methyl-4-(trifluoromethyl)pyridin-2-yl)-2,11-dioxo-1,2,3,3a,4,10,11,11a-octahydro-5H-benzo[b]pyrrolo[2,3-f][1,4]diazocin-5-yl)pentyl)-4-(dimethylamino)but-2-enamide]
Second: C=C(CN(C)C)C(=O)NCCOCCN1C[C@H]2CC(=O)N(c3cc(C(F)(F)F)cc(C)n3)[C@@H]2C(=O)N(C)c2cccc(C)c21 [Example 85, N-(2-(2-((3aR,11aS)-6,10-dimethyl-1-(6-methyl-4-(trifluoromethyl)pyridin-2-yl)-2,11-dioxo-1,2,3,3a,4,10,11,11a-octahydro-5H-benzo[b]pyrrolo[2,3-f][1,4]diazocin-5-yl)ethoxy)ethyl)-2-((dimethylamino)methyl)acrylamide]
The Kinact/Kl of the first is 2.9-fold lower: 620000 M⁻¹ s⁻¹ for the first, 1.82e+06 M⁻¹ s⁻¹ for the second.

`C=C(CN(C)C)C(=O)N1CCN(C(=O)CCN2C[C@H]3CC(=O)N(c4cc(C(F)(F)F)cc(C)n4)[C@@H]3C(=O)N(C)c3cccc(Cl)c32)CC1` [Example 86, (3aR,11aS)-6-chloro-5-(3-(4-(2-((dimethylamino)methyl)acryloyl)piperazin-1-yl)-3-oxopropyl)-10-methyl-1-(6-methyl-4-(trifluoromethyl)pyridin-2-yl)-1,3a,4,5,10,11a-hexahydro-2H-benzo[b]pyrrolo[2,3-f][1,4]diazocine-2,11(3H)-dione] and `C=CC(=O)N1CC(N2CCC(CN3C[C@H]4CC(=O)N(c5cc(C(F)(F)F)cc(C)n5)[C@@H]4C(=O)N(C)c4cccc(Cl)c43)CC2)C1` [Example 92, (3aR,11aS)-5-((1-(1-acryloylazetidin-3-yl)piperidin-4-yl)methyl)-6-chloro-10-methyl-1-(6-methyl-4-(trifluoromethyl)pyridin-2-yl)-1,3a,4,5,10,11a-hexahydro-2H-benzo[b]pyrrolo[2,3-f][1,4]diazocine-2,11(3H)-dione] are within 1.5-fold of each other in Kinact/Kl: 3.49e+06 M⁻¹ s⁻¹ for the first, 2.56e+06 M⁻¹ s⁻¹ for the second.

Going from `C=CC(=O)Nc1ccc(CN2C[C@H]3CC(=O)N(c4cc(C(F)(F)F)cc(C)n4)[C@@H]3C(=O)N(C)c3cccc(C)c32)cc1` [Example 87, N-(4-(((3aR,11aS)-6,10-dimethyl-1-(6-methyl-4-(trifluoromethyl)pyridin-2-yl)-2,11-dioxo-1,2,3,3a,4,10,11,11a-octahydro-5H-benzo[b]pyrrolo[2,3-f][1,4]diazocin-5-yl)methyl)phenyl)acrylamide] to `C/C=C(\CN(C)C)C(=O)Nc1ccc(CN2C[C@H]3CC(=O)N(c4cc(C(F)(F)F)cc(C)n4)[C@@H]3C(=O)N(C)c3cccc(C)c32)cc1` [Example 89, (E)-N-(4-(((3aR,11aS)-6,10-dimethyl-1-(6-methyl-4-(trifluoromethyl)pyridin-2-yl)-2,11-dioxo-1,2,3,3a,4,10,11,11a-octahydro-5H-benzo[b]pyrrolo[2,3-f][1,4]diazocin-5-yl)methyl)phenyl)-2-((dimethylamino)methyl)but-2-enamide], the Kinact/Kl rises from 810000 M⁻¹ s⁻¹ to 2.4e+06 M⁻¹ s⁻¹ (3-fold).

Compared with `C=CC(=O)Nc1ccc(CN2C[C@H]3CC(=O)N(c4cc(C(F)(F)F)cc(C)n4)[C@@H]3C(=O)N(C)c3cccc(C)c32)cc1OC` [Example 90, N-(4-(((3aR,11aS)-6,10-dimethyl-1-(6-methyl-4-(trifluoromethyl)pyridin-2-yl)-2,11-dioxo-1,2,3,3a,4,10,11,11a-octahydro-5H-benzo[b]pyrrolo[2,3-f][1,4]diazocin-5-yl)methyl)-2-methoxyphenyl)acrylamide], `C=CC(=O)Nc1ccc(CN2C[C@H]3CC(=O)N(c4cc(C(F)(F)F)cc(C)n4)[C@@H]3C(=O)N(C)c3cccc(C)c32)cc1N(C)CCN(C)C` [Example 91, N-(4-(((3aR,11aS)-6,10-dimethyl-1-(6-methyl-4-(trifluoromethyl)pyridin-2-yl)-2,11-dioxo-1,2,3,3a,4,10,11,11a-octahydro-5H-benzo[b]pyrrolo[2,3-f][1,4]diazocin-5-yl)methyl)-2-((2-(dimethylamino)ethyl)(methyl)amino)phenyl)acrylamide] is 2.1-fold higher in Kinact/Kl: 2.09e+06 M⁻¹ s⁻¹ for the first, 4.38e+06 M⁻¹ s⁻¹ for the second.

First: C=CC(=O)N1CC(N2CCC(CN3C[C@H]4CC(=O)N(c5cc(C(F)(F)F)cc(C)n5)[C@@H]4C(=O)N(C)c4cccc(C)c43)CC2)C1 [Example 93, (3aR,11aS)-5-((1-(1-acryloylazetidin-3-yl)piperidin-4-yl)methyl)-6,10-dimethyl-1-(6-methyl-4-(trifluoromethyl)pyridin-2-yl)-1,3a,4,5,10,11a-hexahydro-2H-benzo[b]pyrrolo[2,3-f][1,4]diazocine-2,11(3H)-dione]
Second: C=CC(=O)N1CC(N2CCC(F)(CN3C[C@H]4CC(=O)N(c5cc(C(F)(F)F)cc(C)n5)[C@@H]4C(=O)N(C)c4cccc(C)c43)CC2)C1 [Example 94, (3aR,11aS)-5-((1-(1-acryloylazetidin-3-yl)-4-fluoropiperidin-4-yl)methyl)-6,10-dimethyl-1-(6-methyl-4-(trifluoromethyl)pyridin-2-yl)-1,3a,4,5,10,11a-hexahydro-2H-benzo[b]pyrrolo[2,3-f][1,4]diazocine-2,11(3H)-dione]
The Kinact/Kl of the first is 1.8-fold higher: 2.73e+06 M⁻¹ s⁻¹ for the first, 1.54e+06 M⁻¹ s⁻¹ for the second.

`C=CC(=O)N1CC(N2CCC(CN3C[C@H]4CC(=O)N(c5cc(C(F)(F)F)cc(C)n5)[C@@H]4C(=O)N(C)c4cccc(Cl)c43)C(O)C2)C1` (stereo partly drawn) [Example 96, (3aR,11aS)-5-((1-(1-acryloylazetidin-3-yl)-3-hydroxypiperidin-4-yl)methyl)-6-chloro-10-methyl-1-(6-methyl-4-(trifluoromethyl)pyridin-2-yl)-1,3a,4,5,10,11a-hexahydro-2H-benzo[b]pyrrolo[2,3-f][1,4]diazocine-2,11(3H)-dione] and `C=CC(=O)N1CC(N2CCN(C(C)CN3C[C@H]4CC(=O)N(c5cc(C(F)(F)F)cc(C)n5)[C@@H]4C(=O)N(C)c4cccc(F)c43)CC2)C1` (stereo partly drawn) [Example 97, (3aR,11aS)-5-(2-(4-(1-acryloylazetidin-3-yl)piperazin-1-yl)propyl)-6-fluoro-10-methyl-1-(6-methyl-4-(trifluoromethyl)pyridin-2-yl)-1,3a,4,5,10,11a-hexahydro-2H-benzo[b]pyrrolo[2,3-f][1,4]diazocine-2,11(3H)-dione] are within 1.5-fold of each other in Kinact/Kl: 810000 M⁻¹ s⁻¹ for the first, 1.18e+06 M⁻¹ s⁻¹ for the second.
